According to the supplement of paper PMC11781733:
Structures can show the parent of a compound that is named as a salt.

Tests used:
Conditions in all cases: exposure time: 15 min to 3 h acute
Dugesia japonica [1] = test: stickiness incidence (% planarians (vehicle-normalised)); higher = higher incidence or increase relative to vehicle control
Procedure: (§1)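 Adult asexual Dugesia japonica planarians (1 per well, 48-well plate, n=24 over technical triplicates) were exposed acutely (15 min to 3 h) to each compound (0.5% DMSO or water vehicle) and screened on a robotic platform for crawl-out, stickiness, body shape, phototaxis, noxious-heat scrunching and locomotion endpoints. Binary endpoints are incidence rate x100 normalised to in-plate vehicle controls. Continuous endpoints are the median response normalised to the plate vehicle median, as % change or difference. Negative incidences after vehicle subtraction were set to 0.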

Dugesia japonica [2] = test: C-shape incidence (% planarians (vehicle-normalised)); higher = higher incidence or increase relative to vehicle control
Procedure: as §1

Dugesia japonica [3] = test: loss of phototaxis incidence (% planarians (vehicle-normalised)); higher = higher incidence or increase relative to vehicle control
Procedure: as §1

Dugesia japonica [4] = test: hyperkinesis incidence (% planarians (vehicle-normalised)); higher = higher incidence or increase relative to vehicle control
Procedure: as §1

Dugesia japonica [5] = test: crawl-out incidence (% planarians); higher = higher incidence or increase relative to vehicle control
Procedure: as §1, with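 “x100.” for “x100 normalised to in-plate vehicle controls.”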

Dugesia japonica [6] = test: total locomotor bursts minus vehicle (bursts difference vs vehicle); higher = higher incidence or increase relative to vehicle control
Procedure: as §1

Dugesia japonica [7] = test: pharynx extrusion incidence (% planarians (vehicle-normalised)); higher = higher incidence or increase relative to vehicle control
Procedure: as §1

Dugesia japonica [8] = test: resting fraction in blue light vs vehicle (difference in fraction x100 vs vehicle); higher = higher incidence or increase relative to vehicle control
Procedure: as §1

Dugesia japonica [9] = test: speed first 30 s blue light vs vehicle (% change vs vehicle); higher = higher incidence or increase relative to vehicle control
Procedure: as §1

Dugesia japonica [10] = test: noxious heat displacement strength vs vehicle (% change vs vehicle); higher = higher incidence or increase relative to vehicle control
Procedure: as §1

Dugesia japonica [11] = test: speed second 30 s blue light vs vehicle (% change vs vehicle); higher = higher incidence or increase relative to vehicle control
Procedure: as §1

Dugesia japonica [12] = test: contracted body shape incidence (% planarians (vehicle-normalised)); higher = higher incidence or increase relative to vehicle control
Procedure: as §1

Dugesia japonica [13] = test: anxiety (time in outer well region) vs vehicle (% change vs vehicle); higher = higher incidence or increase relative to vehicle control
Procedure: as §1

Dugesia japonica [14] = test: any abnormal body shape incidence (% planarians (vehicle-normalised)); higher = higher incidence or increase relative to vehicle control
Procedure: as §1

Dugesia japonica [15] = test: resting fraction in dark vs vehicle (difference in fraction x100 vs vehicle); higher = higher incidence or increase relative to vehicle control
Procedure: as §1

Dugesia japonica [16] = test: corkscrew incidence (% planarians (vehicle-normalised)); higher = higher incidence or increase relative to vehicle control
Procedure: as §1

Dugesia japonica [17] = test: loss of heat-induced scrunching incidence (% planarians (vehicle-normalised)); higher = higher incidence or increase relative to vehicle control
Procedure: as §1

Dugesia japonica [18] = test: speed in dark vs vehicle (% change vs vehicle); higher = higher incidence or increase relative to vehicle control
Procedure: as §1

Row | SMILES | stickiness incidence (Dugesia japonica [1]) | C-shape incidence (Dugesia japonica [2]) | loss of phototaxis incidence (Dugesia japonica [3]) | hyperkinesis incidence (Dugesia japonica [4]) | crawl-out incidence (Dugesia japonica [5]) | total locomotor bursts minus vehicle (Dugesia japonica [6]) | pharynx extrusion incidence (Dugesia japonica [7]) | resting fraction in blue light (Dugesia japonica [8]) | speed first 30 s blue light (Dugesia japonica [9]) | noxious heat displacement strength (Dugesia japonica [10]) | speed second 30 s blue light (Dugesia japonica [11]) | contracted body shape incidence (Dugesia japonica [12]) | anxiety (Dugesia japonica [13]) | any abnormal body shape incidence (Dugesia japonica [14]) | resting fraction in dark (Dugesia japonica [15]) | corkscrew incidence (Dugesia japonica [16]) | loss of heat-induced scrunching incidence (Dugesia japonica [17]) | speed in dark (Dugesia japonica [18])
1 | CN(C)CCCN1c2ccccc2CCc2ccccc21 [imipramine] (10 µM) | 16.7 | 0 | 12.5 | 0 | 0 | 10.8 | 0 | 3.16 | -47.9 | -29.7 | -51.7 | 0 | 0.22 | 0 | 4.41 | 0 | ≤ 0 | -48.9
2 | CCCCNc1c(C(=O)OCC)c(C)nc2c1cnn2CC [tracazolate hydrochloride] (100 µM) | ≤ 0 | 87.5 | 12.5 | 70.8 | 0 | 81.5 | 8.33 | 59 | -91.5 | -63.6 | -91.7 | 4.17 | -79.8 | 91.7 | 61.7 | 12.5 | 29.2 | -83.4
3 | Cc1ncc2n1-c1ccc(Cl)cc1C(c1ccccc1F)=NC2 [midazolam] (17.8 µM) | ≤ 0 | 0 | ≤ 0 | 33.3 | 0 | 1 | 0 | -0.5 | -3.83 | -19.1 | -2.19 | 0 | -7.26 | 33.3 | 1.03 | 0 | ≤ 0 | -14.7
4 | CN1CC(=O)N=C1NC(=O)Nc1cccc(Cl)c1 [fenobam] (178 µM) | ≤ 0 | 0 | ≤ 0 | 0 | 0 | 0.5 | 0 | 0 | -12.6 | -42.2 | -18.9 | 0 | 3.95 | 0 | 0.09 | 0 | ≤ 0 | -3.57
5 | CN1C(=O)CN=C(c2ccccc2)c2cc(Cl)ccc21 [diazepam] (10 µM) | 21.7 | 0 | 50 | 0 | 0 | -1 | 0 | 0.83 | 0.43 | -17.4 | -16.1 | 0 | 0.94 | 0 | -5.91 | 0 | 12.5 | 15.9
6 | CN[C@H]1CC[C@@H](c2ccc(Cl)c(Cl)c2)c2ccccc21 [sertraline hydrochloride] (100 µM) | ≤ 0 | 0 | 4.35 | 91.3 | 4.17 | -5.25 | 0 | 3.91 | -33.7 | -27.1 | -33.9 | 0 | 17.1 | 91.3 | 4.98 | 0 | 21.7 | 7.78
7 | CNCC[C@H](Oc1cccc2ccccc12)c1cccs1 [s-duloxetine] (31.6 µM) | ≤ 0 | 34.8 | 47.8 | 39.1 | 4.17 | 61 | 26.1 | 7.14 | -45.9 | -61.5 | -62.7 | 4.35 | -51.2 | 73.9 | -4.51 | 0 | 65.2 | -18.7
